Reference: the supplement of paper PMC10307832

Tests used:
Test in all cases: relative viability (nuclei count vs DMSO), 5 days (fraction); higher = more cells survive
Tipifarnib + Tozasertib = compound: Cn1cncc1[C@@](N)(c1ccc(Cl)cc1)c1ccc2c(c1)c(-c1cccc(Cl)c1)cc(=O)n2C [Tipifarnib] + Cc1cc(Nc2cc(N3CCN(C)CC3)nc(Sc3ccc(NC(=O)C4CC4)cc3)n2)n[nH]1 [Tozasertib] (partner 0.1 µM)
Procedure, shortened: (§1)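 Each reported value is a median over duplicate plates. It expresses relative viability: treated-well nuclei count divided by vehicle-well nuclei count. Lung cancer cell lines in 1536-well plates were dosed by pin tool a day after seeding, alone with one drug or with a fixed anchor-drug dose plus five library-drug doses (not always all listed) in √10 steps, and nuclei were counted after 5 days.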

Tipifarnib + Crizotinib = compound: Cn1cncc1[C@@](N)(c1ccc(Cl)cc1)c1ccc2c(c1)c(-c1cccc(Cl)c1)cc(=O)n2C [Tipifarnib] + C[C@@H](Oc1cc(-c2cnn(C3CCNCC3)c2)cnc1N)c1c(Cl)ccc(F)c1Cl [Crizotinib] (partner 1 µM)
Procedure, shortened: as §1

Tipifarnib + Decitabine = compound: Cn1cncc1[C@@](N)(c1ccc(Cl)cc1)c1ccc2c(c1)c(-c1cccc(Cl)c1)cc(=O)n2C [Tipifarnib] + Nc1ncn([C@H]2C[C@H](O)[C@@H](CO)O2)c(=O)n1 [Decitabine] (partner 2 µM)
Procedure, shortened: as §1

Tipifarnib + Lapatinib = compound: Cn1cncc1[C@@](N)(c1ccc(Cl)cc1)c1ccc2c(c1)c(-c1cccc(Cl)c1)cc(=O)n2C [Tipifarnib] + CS(=O)(=O)CCNCc1ccc(-c2ccc3ncnc(Nc4ccc(OCc5cccc(F)c5)c(Cl)c4)c3c2)o1 [Lapatinib] (partner 2 µM)
Procedure, shortened: as §1

Cell Line	relative viability (Tipifarnib + Tozasertib; first compound 0.01 µM)	relative viability (Tipifarnib + Tozasertib; first compound 0.03162 µM)	relative viability (Tipifarnib + Tozasertib; first compound 0.1 µM)	relative viability (Tipifarnib + Tozasertib; first compound 0.3162 µM)	relative viability (Tipifarnib + Tozasertib; first compound 1 µM)	relative viability (Tipifarnib + Crizotinib; first compound 0.01 µM)	relative viability (Tipifarnib + Crizotinib; first compound 0.03162 µM)	relative viability (Tipifarnib + Crizotinib; first compound 0.1 µM)	relative viability (Tipifarnib + Crizotinib; first compound 0.3162 µM)	relative viability (Tipifarnib + Crizotinib; first compound 1 µM)	relative viability (Tipifarnib + Decitabine; first compound 0.01 µM)	relative viability (Tipifarnib + Decitabine; first compound 0.03162 µM)	relative viability (Tipifarnib + Decitabine; first compound 0.1 µM)	relative viability (Tipifarnib + Decitabine; first compound 0.3162 µM)	relative viability (Tipifarnib + Decitabine; first compound 1 µM)	relative viability (Tipifarnib + Lapatinib; first compound 0.01 µM)	relative viability (Tipifarnib + Lapatinib; first compound 0.03162 µM)	relative viability (Tipifarnib + Lapatinib; first compound 0.1 µM)	relative viability (Tipifarnib + Lapatinib; first compound 0.3162 µM)	relative viability (Tipifarnib + Lapatinib; first compound 1 µM)
HOP-62	0.297	0.292	0.312	0.2	0.244	0.726	0.528	0.303	0.35	0.448	0.204	0.225	0.196	0.254	0.191	0.841	0.301	0.454	0.244	0.265
LC-2-ad	0.509	0.37	0.415	0.407	0.393	0.399	0.391	0.382	0.349	0.35	0.871	0.913	0.77	0.802	0.641	0.843	0.592	0.367	0.436	0.178
LCLC-97TM1	0.154	0.18	0.186	0.148	0.215	0.329	0.295	0.244	0.227	0.15	0.242	0.242	0.308	0.225	0.205	0.998	1.02	0.554	0.504	0.237
LK-2	0.158	0.173	0.189	0.157	0.162	0.231	0.217	0.238	0.209	0.222	0.375	0.266	0.276	0.265	0.139	0.824	0.801	0.8	0.678	0.629
LOU-NH91	0.61	0.524	0.329	0.464	0.441	0.741	0.752	0.695	0.619	0.646	0.804	0.791	0.801	0.664	0.738	0.794	0.658	0.675	0.669	0.499
LU99A	0.261	0.249	0.223	0.232	0.223	0.5	0.407	0.353	0.337	0.34	0.982	0.6	0.481	0.456	0.399	0.663	0.583	0.461	0.448	0.275
LXF-289	0.224	0.192	0.21	0.142	0.152	0.769	0.759	0.715	0.694	0.64	0.415	0.391	0.429	0.348	0.377	0.88	0.865	0.855	0.787	0.708
NCI-H23	0.346	0.371	0.384	0.253	0.259	0.579	0.491	0.386	0.311	0.249	0.333	0.349	0.307	0.266	0.281	1.4	0.949	0.717	0.439	0.23
NCI-H322M	0.55	0.492	0.511	0.417	0.46	0.874	0.854	0.79	0.463	0.587	0.713	0.751	0.631	0.701	0.666	0.637	0.662	0.622	0.688	0.505
NCI-H358	0.117	0.123	0.104	0.104	0.11	0.563	0.261	0.35	0.245	0.23	0.202	0.203	0.243	0.278	0.183	0.455	0.444	0.443	0.424	0.352
NCI-H460	0.625	0.51	0.216	0.15	0.0888	1.12	0.249	0.133	0.0704	0.0599	0.479	0.33	0.283	0.15	0.0821	0.987	0.431	0.285	0.195	0.0315
NCI-H520	0.404	0.4	0.348	0.335	0.336	1.05	0.598	0.645	0.341	0.345	0.583	0.469	0.627	0.401	0.424	0.996	0.79	0.838	0.708	0.321
NCI-H596	1.05	0.687	0.713	0.722	0.589	1.09	0.974	1.03	0.945	0.813	0.96	0.918	0.963	0.558	0.824	0.99	1.09	1.04	0.868	0.608
NCI-H647	0.21	0.126	0.178	0.101	0.14	0.76	0.618	0.515	0.367	0.521	0.453	0.305	0.261	0.185	0.186	1.17	0.792	0.693	0.668	0.176
NCI-H650	0.791	0.612	0.498	0.576	0.379	0.773	0.679	0.442	0.437	0.345	0.352	0.33	0.341	0.251	0.305	0.719	0.837	0.599	0.434	0.345
NCI-H661	0.355	0.347	0.337	0.34	0.347	1.02	0.935	0.785	0.837	0.786	0.646	0.564	0.525	0.503	0.531	0.636	0.56	0.375	0.424	0.397

Cell Line	relative viability (Tipifarnib + Tozasertib; first compound 0.01 µM)	relative viability (Tipifarnib + Tozasertib; first compound 0.03162 µM)	relative viability (Tipifarnib + Tozasertib; first compound 0.1 µM)	relative viability (Tipifarnib + Tozasertib; first compound 0.3162 µM)	relative viability (Tipifarnib + Tozasertib; first compound 1 µM)	relative viability (Tipifarnib + Crizotinib; first compound 0.01 µM)	relative viability (Tipifarnib + Crizotinib; first compound 0.03162 µM)	relative viability (Tipifarnib + Crizotinib; first compound 0.1 µM)	relative viability (Tipifarnib + Crizotinib; first compound 0.3162 µM)	relative viability (Tipifarnib + Crizotinib; first compound 1 µM)	relative viability (Tipifarnib + Decitabine; first compound 0.01 µM)	relative viability (Tipifarnib + Decitabine; first compound 0.03162 µM)	relative viability (Tipifarnib + Decitabine; first compound 0.1 µM)	relative viability (Tipifarnib + Decitabine; first compound 0.3162 µM)	relative viability (Tipifarnib + Decitabine; first compound 1 µM)	relative viability (Tipifarnib + Lapatinib; first compound 0.01 µM)	relative viability (Tipifarnib + Lapatinib; first compound 0.03162 µM)	relative viability (Tipifarnib + Lapatinib; first compound 0.1 µM)	relative viability (Tipifarnib + Lapatinib; first compound 0.3162 µM)	relative viability (Tipifarnib + Lapatinib; first compound 1 µM)
NCI-H727	0.809	0.598	0.624	0.608	0.444	0.958	0.838	0.746	0.695	0.675	0.862	0.811	0.855	0.765	0.851	1.01	0.843	0.755	0.578	0.607
NCI-H838	0.254	0.286	0.248	0.214	0.252	0.694	0.538	0.434	0.434	0.433	0.466	0.452	0.46	0.413	0.38	0.965	0.952	0.644	0.615	0.393
NCI-H1355	0.474	0.408	0.321	0.349	0.329	1.19	1.05	0.764	0.64	0.673	0.372	0.397	0.328	0.317	0.321	0.999	0.871	0.746	0.67	0.516
NCI-H1437	0.398	0.358	0.381	0.319	0.353	0.978	0.959	1	0.763	0.894	0.597	0.618	0.613	0.635	0.593	0.873	0.864	0.738	0.727	0.248
NCI-H1650	0.267	0.283	0.241	0.205	0.326	0.47	0.454	0.401	0.324	0.337	0.307	0.298	0.309	0.357	0.304	0.687	0.643	0.486	0.376	0.211
NCI-H1651	0.927	0.649	0.615	0.575	0.711	0.951	0.856	0.893	0.789	0.843	0.667	0.597	0.658	0.761	0.421	0.931	0.799	0.919	0.85	0.426
NCI-H1666	0.593	0.507	0.526	0.447	0.517	0.958	0.816	0.761	0.626	0.843	0.698	0.739	0.768	0.598	0.571	0.666	0.61	0.591	0.474	0.388
NCI-H1734	0.294	0.26	0.247	0.215	0.239	0.802	0.589	0.425	0.444	0.352	0.565	0.485	0.557	0.434	0.369	1.18	0.995	0.682	0.618	0.431
NCI-H1755	0.741	0.584	0.639	0.518	0.569	0.83	0.79	0.818	0.742	0.688	0.726	0.761	0.739	0.746	0.741	1.03	0.988	0.981	0.906	0.507
NCI-H1915	0.358	0.326	0.293	0.26	0.287	0.7	0.684	0.431	0.405	0.425	0.272	0.245	0.284	0.232	0.257	0.927	0.67	0.56	0.416	0.282
NCI-H1944	0.257	0.256	0.236	0.25	0.236	1.12	0.92	0.624	0.568	0.609	0.421	0.452	0.413	0.346	0.404	0.854	0.622	0.599	0.444	0.342
NCI-H1975	0.853	0.695	0.682	0.386	0.374	0.93	0.989	0.717	0.566	0.49	0.425	0.419	0.37	0.317	0.317	1.01	0.933	0.933	0.631	0.65
NCI-H1993	0.444	0.481	0.553	0.521	0.481	0.77	0.749	0.617	0.595	0.661	0.666	0.551	0.579	0.528	0.545	0.747	0.835	0.699	0.716	0.779
NCI-H2009	0.605	0.574	0.421	0.341	0.419	0.994	1.01	0.789	0.563	0.578	0.382	0.378	0.362	0.357	0.323	0.99	0.707	0.708	0.602	0.326
NCI-H2023	0.251	0.289	0.217	0.182	0.215	0.491	0.495	0.302	0.27	0.333	0.219	0.2	0.215	0.176	0.165	1.01	0.544	0.348	0.357	0.105
NCI-H2085	0.723	0.663	0.468	0.437	0.617	0.685	0.446	0.433	0.414	0.469	0.558	0.59	0.519	0.493	0.536	0.846	0.659	0.633	0.523	0.533
